These results are taken from PubChem BioAssay (NCI).

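Compound exposure: 48 hours, 5 concentrations, 96-well plates. Abbreviation: GI50, concentration required for 50% inhibition of growth. TGI is the concentration that stops growth completely.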 Where a SMILES comes first, the peptide text is derived from it. The star is where a group is joined. Boc = CC(C)(C)OC(=O)*; Bz = O=C(c1ccccc1)*

What all share (experiment): NCI anticancer screen, dose series, 48 h
Test [1] relates to A549 NSCLC.
Test [2] has as its system COLO 205 colon.
Test [3] deals with ACHN renal.
Test [4] has as its system SF-539 CNS.
The subject of test [5] is HL-60(TB) leukemia.
Test [6] concerns A498 renal.
Test [7] relates to KM12 colon.
Test [8] deals with SW-620 colon.

On to `O=C(Nc1nnc(-c2ccccc2)o1)C(SC(=S)N1CCCCC1)c1ccccc1` (stereo not given), for which the TGI in test [1] is 49.5 µM; in test [2], above 100 µM; in test [3], 75.7 µM; in test [4], 71.3 µM; in test [5], 8.38 µM; in test [6], 73.9 µM. The TGI in test [7] and in test [8] was above 100 µM throughout.
Take `CCOC(=O)CN1C(=O)c2c(c(C)n(-c3ccccc3)c2C)C1=O`: the TGI in test [1], in test [2], in test [3], in test [4], in test [5] and in test [6] was above 100 µM in each case. Also, the TGI in test [7] and in test [8] was above 100 µM in each case.
On to `CN(C)c1ccc(/C=c2/c3ccccc3n3c2c2ccccc2[n+]3C)cc1`, for which the TGI in test [1] was found to be 19.7 µM; in test [2], 0.488 µM; in test [3], 2.88 µM; in test [4], 3.12 µM; in test [5], 0.428 µM; in test [6], 5.14 µM. For the same molecule, the TGI in test [7] was 10.7 µM; in test [8], 1.61 µM.
As to `CC1(C)[C@H](C(=O)O)N2C(=O)[C@@H](NS(=O)(=O)c3ccc([N+](=O)[O-])cc3)[C@H]2S1(=O)=O`, the TGI in test [1], in test [2], in test [3], in test [4], in test [5] and in test [6] was above 100 µM in each case. Further, the TGI in test [7] and in test [8] was above 100 µM each time.
Turning to `O=C(CN1CCN(Cc2ccccc2)CC1)c1ccc2[nH]c(=O)oc2c1`, the TGI in test [1], in test [2], in test [3], in test [4], in test [5] and in test [6] was above 100 µM in each case. Moreover, the TGI in test [7] and in test [8] was above 100 µM in each case.
In the case of `NCCSc1nc2ccccc2s1`, the TGI in test [1] is above 100 µM; in test [2] it was above 100 µM; in test [3] it was above 100 µM; in test [4] it was 37.6 µM; in test [5], above 100 µM; in test [6], 90.7 µM. For the same molecule, the TGI in test [7] and in test [8] was above 100 µM in each case.
Consider `CC1=NCCN=C(C)C1N=Nc1ccc2nc(C)[nH]c2c1`, for which the TGI in test [1] came to 19.6 µM; in test [2] it was 53.6 µM; in test [3], 32.1 µM; in test [4] it was 42.5 µM; in test [5] it was 9.33 µM; in test [6], 18 µM. For the same molecule, the figures for the TGI in test [7] and in test [8] were 30.9 µM and 33.4 µM, respectively.
Take `NCC(=O)NC1(c2cc3ccccc3s2)CCCCC1`: the TGI in test [1] is above 100 µM; in test [2] it was 32.5 µM; in test [3], 56.9 µM; in test [4] it was above 100 µM; in test [5], 86.8 µM; in test [6], above 100 µM. The TGI in test [7] and in test [8] was above 100 µM throughout.
On to `COc1ccc(/C=C2\CCCC(CN(C)C)C2=O)cc1` (stereo not given), for which the TGI in test [1] amounted to 33.9 µM; in test [2] it was 4.45 µM; in test [3], 5.86 µM; in test [4], 31.1 µM; in test [5], 4.62 µM; in test [6], 30.4 µM. Also, the TGI is 2.75 µM in test [7] and 2.39 µM in test [8].
In the case of `CC(NC(=O)C(Cc1ccc(OC(=O)c2ccccc2)cc1)NC(=O)OC(C)(C)C)C(=O)NC(Cc1ccccc1)C(=O)NCC(N)=O` (stereo not given) (Boc-Y(Bz)AFG-NH2; configuration not given here), the TGI was 55 µM in test [1]; 84.8 µM in test [2]; 54.6 µM in test [3]; 68.3 µM in test [4]; 82 µM in test [5]; 41.9 µM in test [6]. Moreover, the TGI in test [7] and in test [8] was above 100 µM in each case.
For `CC(=O)OC1=c2ccccc2=C(O)C2C1C=NN2C(C)=O` (stereo not given), the TGI in test [1], in test [2], in test [3], in test [4], in test [5] and in test [6] was above 100 µM in each case. For the same molecule, the TGI in test [7] and in test [8] was above 100 µM throughout.
On to `C=CCN1CCC(OC(=O)C(O)(C#CC)C2CCCC2)CC1` (stereo not given), for which the TGI in test [1], in test [2], in test [3], in test [4], in test [5] and in test [6] was above 100 µM each time. Also, the TGI in test [7] and in test [8] was above 100 µM throughout.
As to `C/C=C/[C@H]1O[C@@](O)([C@@H](C)[C@H](O)[C@H](C)[C@H]2OC(=O)/C(OC)=C/C(C)=C/[C@@H](C)[C@@H](O)[C@@H](CC)[C@@H](O)[C@H](C)C/C(C)=C/C=C/[C@@H]2OC)C[C@H](OC2CC(O)C(O)C(C)O2)[C@@H]1C` (stereo not given in full), the TGI in test [1] was 12.3 µM; in test [2], 3.96 µM; in test [3], 12.8 µM; in test [5] it was below 0.0075 µM; in test [6], 12.2 µM; in test [7], 12 µM. In test [8], this molecule registered a TGI of 10.4 µM.
As to `O=C(Nc1cccc(-n2ccc3c(NC(=O)c4ccccc4)nccc32)c1)c1ccc(N2CCOCC2)c(C(F)(F)F)c1`, the GI50 in test [1] is 51.3 nM; in test [3], 85.3 nM; in test [4], 35.8 nM; in test [5], 39.3 nM; in test [6], 35.7 nM; in test [7], 36.4 nM. For the same molecule, the GI50 in test [8] is 41.2 nM. Further, the TGI is above 100 µM in test [1]; above 63.5 µM in test [3]; 3.42 µM in test [4]; 4.82 µM in test [5]; 4.72 µM in test [6]; 1.36 µM in test [7]. The molecule further came in with a TGI in test [8] above 100 µM.
Consider `CCOC(=O)c1cnn2c1ncc1c(=O)n(NC(N)=O)ccc12`, for which the TGI in test [1], in test [2], in test [3], in test [4], in test [5] and in test [6] was above 100 µM in each case. Further, the TGI in test [7] and in test [8] was above 100 µM throughout.
